Experimental data taken from EP2433636A1, “Treatment of Malignant Diseases” (Medizinische Universität Wien, priority 2010, dated 2012).
Entries after “also recorded” stand apart in the source; their conditions may differ. Values belong to the compound of their own block, whether it stands above or below them.

Legend:
[1] = Solubility test in 20-30% DMSO in water; type: physicochemical; details: appropriate if 1mM of the compound is soluble in 20-30% DMSO in water; 100 mM stock in 100% DMSO
Procedure: Compounds in powder form were dissolved in 100% DMSO to obtain 100 mM stock solutions of each of the compounds. Solubility of the compounds was then tested by preparing solutions in 20-30% DMSO in water. […] Compounds which were non-soluble in 30% DMSO were regarded as non-soluble. NSC23766 was always used as a reference compound.

Rac 1, 2, 3 = Rac 1, 2, 3 activation assay (G-LISA) after EGF stimulation; type: cell-based, Human
Procedure: Prostate cancer cells were seeded in 6-well plates and starved for 20 h. Cells were incubated with Rac1 small molecule inhibitor AZA1 for 4 h and then stimulated with 50 ng/ml epidermal growth factor (EGF) (R&D systems) for 1 min 30 sec and Rac activation was then measured with the G-LISA method (Rac 1, 2, 3 activation assay, colorimetric format, Cytoskeleton) according to the manufacturer's protocol.

[2] = system: CRL-2505 prostate cancer cells; assay: WST-1 cell proliferation assay; type: cell-based, Human; details: 72 hours of incubation with 1, 2, 5, 10 and 25 µM, compared to untreated cells
Procedure: Human CRL-2505 cells were seeded in 96-well plates at a density of 1x10^4 cells/well in culture medium. Cells were incubated with 1, 2, 5, 10, 25 µM compound AZA1. Cell proliferation was determined 24, 48 or 72 h after treatment using the WST-1 reagent (Roche Diagnostics, Indianapolis, IN) according to the manufacturer's protocol (Zins et al., Cancer Res. 67 (2007), 1038-1045). Each experiment was repeated three times.

CRL-2505 cells [3] = assay: Cell cycle distribution by flow cytometry (propidium iodide); type: cell-based, Human; details: 24 h; for sub G1 events (M1): untreated 1.47%
Procedure: (§1) One portion of the cells were then fixed with 70% ethanol for 1h at 4°C, washed with PBS and stained with propidium iodide (PI) puffer with 50 µg/ml DNase-free RNaseA. Cells in different cell cycle stages were determined. The rest of the cells were fixed with Cytofix fixation buffer (BD) for 30 min at 37°C, washed and then permeabilized with Perm buffer III (BD) and stained with Cyclin D1 (anti-human Cyclin D1 antibody set), phospho-Akt (anti-phospho-Akt pT308), phospho-ERK (anti-phospho-ERK1/2 pT202/pY204), phospho-JNK (anti-phospho-JNK pT183/pY185) and phospho-p38 antibodies (anti-phospho-p38 MAPK pT180/pY182) (the latter antibodies were purchased from BD Biosciences). […] were analyzed on a FACScan flow cytometer (BD Biosciences) with an argon laser tuned to 488 nm.

Cyclin D1 = Cyclin D1 expression by flow cytometry; type: cell-based; details: Homo sapiens, 4 h; compared to untreated controls; read-out: Cyclin D1 fluorescence intensity, decrease
Procedure: (§2) Tumour cells were seeded in 10 cm plates and allowed to adhere before treatment with 20 µM compound AZA1 for 4 h before trypsinization and washing with PBS.
as §1

CRL-2505 cells [4] = assay: Apoptosis by flow cytometry (Annexin V-FITC and PI); type: cell-based, Human; details: 3 h after treatment
Excerpt: Then the effect of Rac1 inhibition on the cell cycle regulatory protein Cyclin D1 was examined. […] Next, flow cytometry was used to assess apoptosis in response to Rac1 inhibition.

Prostate cancer cells = assay: In vitro migration assay (Boyden chamber); type: cell-based, Human; details: compared to untreated controls
Procedure: Prostate cancer cells (5x10^4 in 1 ml DMEM with 10% FCS) were added to the top of each Boyden migration chamber (8-µm, 12-well plate format; BD Biosciences, Palo Alto, CA). Cells were incubated with 1, 2, and 5 µM of compound AZA1. […] Cells from the upper side of the membrane were removed with cotton swabs. The membranes were excised using a scalpel, inverted and transferred to a PBS filled tissue culture well. Membranes were then fixed in methanol for 2 min at -20°C. After washing in PBS, membranes were stained with 1 µg/ml 4'-6-Diamidino-2-phenylindole (DAPI) in PBS for 10 min at RT and washed again in PBS. Membranes were then embedded in Cityfluor (Cityfluor, Leicester, UK) on glass slides under coverslips. Representative sectors of migrated prostate cancer cells were counted under a fluorescence microscope. Each experiment was performed in triplicate.

phospho-Akt = assay: Phospho-Akt by flow cytometry; type: cell-based, Human
Procedure: as §1

Pak1 = assay: Western blot, Pak1 total protein; type: cell-based, Human; details: 2 µM for 24h, compared to controls
Procedure: (§3) Cell lysates were prepared (Aharinejad et al., Cancer Res. 62 (2002), 5317-5324 and Cancer Res. 64 (2004), 5378-5384) and 50 µg/lane separated by 9% SDS-PAGE prior to electrophoretic transfer onto Hybond C super (Amersham Pharmacia Biotech, Buckinghamshire, UK). The blots were probed with antibodies against PAK1 and phospho-Pak1 (pS144)/Pak2 (pS141) (Cell Signaling Technology, Danvers, MA) before incubation with horseradish peroxidase-conjugated secondary antibodies (Amersham Pharmacia Biotech). Proteins were immunodetected by chemiluminescence (Supersignal-West- Femto, Pierce, Rockford, IL) and quantified by Image Quant 5.0 software (Molecular Dynamics, Sunnyvale, CA).

[5] = system: phospho-Pak1 (pS144)/Pak2 (pS141); assay: Western blot, phospho-Pak1/2; type: cell-based, Human; details: 2 µM for 24h, compared to controls
Procedure: as §3

phospho-ERK = assay: Phospho-ERK by flow cytometry; type: cell-based, Human; details: compared to untreated cells
Procedure: as §2, §1

phospho-JNK = assay: Phospho-JNK by flow cytometry; type: cell-based, Human; details: compared to untreated cells
Procedure: as §2, §1

phospho-p38 = assay: Phospho-p38 by flow cytometry; type: cell-based, Human; details: compared to untreated cells
Procedure: as §2, §1

[6] = system: CRL-2505 prostate cancer xenograft; assay: Human prostate cancer xenograft tumour model; type: in vivo, athymic nu/nu (nude) mice
Procedure: The experiments performed in this study were approved by the Institutional Animal Care and Use Committee at the Vienna Medical University. Pathogen-free, male, 5 week-old athymic nu/nu (nude) mice (Charles River, Sulzfeld, Germany) were weighed, coded and divided into experimental groups of (n = 10) at random. Mice were anesthetized (ketamine hydrochloride/xylazine at 55/7.5 mg/kg i.p.) and 15x10^6 CRL-2505 cells/100 µl PBS were injected s.c. into the left flank (Aharinejad et al., 2004). In a preliminary experiment mice received i.p. injections with 100 µg compound AZA1, AZA2, AZA3, or AZA4 in 100 µl 30% DMSO six days after cell injection for two weeks, control animals received 100 µl 30% DMSO/day (n = 5 for each group). […] Tumour volumes were calculated as length x width^2/2. […]
On day 24, tumors were isolated, weighed and the animals were sacrificed. […] Primary antibodies were detected by sequential incubation with appropriate biotinylated secondary antibodies (Vector Laboratories, Burlingame, CA) and peroxidase conjugated streptavidin (Dako), developed with 3, 3'-diaminobenzidine (Vector Laboratories), counter-stained with haemalaun, dehydrated and mounted in DPX (Merck, Darmstadt, Germany) and digitalized images were generated.

[7] = system: CRL-2505 prostate cancer xenograft; assay: Survival study in prostate cancer xenograft bearing mice; type: in vivo, athymic nu/nu (nude) mice
Procedure: The experiments performed in this study were approved by the Institutional Animal Care and Use Committee at the Vienna Medical University. Pathogen-free, male, 5 week-old athymic nu/nu (nude) mice (Charles River, Sulzfeld, Germany) were weighed, coded and divided into experimental groups of (n = 10) at random. Mice were anesthetized (ketamine hydrochloride/xylazine at 55/7.5 mg/kg i.p.) and 15x10^6 CRL-2505 cells/100 µl PBS were injected s.c. into the left flank (Aharinejad et al., 2004). In a preliminary experiment mice received i.p. injections with 100 µg compound AZA1, AZA2, AZA3, or AZA4 in 100 µl 30% DMSO six days after cell injection for two weeks, control animals received 100 µl 30% DMSO/day (n = 5 for each group). In the main experiment, mice received i.p. injections with 100 µg compound AZA1 in 100 µl 30% DMSO six days after cell injection for two weeks, control animals received 100 µl 30% DMSO/day (n = 10 for each group). Tumour volumes were calculated as length x width^2/2. All animals were sacrificed on day 20.
The survival study was set for three months. Mice were treated with compound AZA1 (n = 10) or 30% DMSO (n = 10) and were euthanized when moribund.
Data were tested for normality using the Shapiro-Wilk test. Groups were compared by nonparametric analysis of variance (ANO-VA, Wilcoxon rank-sum test, Kruskal-Wallis test). All statistical tests were two-sided. The overall survival curves after treatment were analyzed by the Kaplan-Meier survival test. Statistical tests were performed with the use of SAS software (version 9.1.3) and Enterprise Guide (version 4.1, SAS Institute Inc., Cary, NC). Data are expressed as means ± SD. P values of < 0.05 were considered to indicate statistical significance.

PC-3 = details: Rac-hyperactive prostate cancer cells PC-3; cited from earlier work
[8] = system: chronic myelogenous leukemia (CML); details: in vitro and in vivo; cited from earlier work

Compound: Cc1cc2cc(Nc3ccnc(Nc4ccc5[nH]c(C)cc5c4)n3)ccc2[nH]1 [AZA1, N*2*,N*4*-Bis-(2-methyl-1H-indol-5-yl)-pyrimidine-2,4-diamine]
solubility [1]: appropriate solubility
Rac activity (Rac 1, 2, 3; CRL-2505 cells, 5, 10 and 20 µM, 4 h incubation, then 50 ng/ml EGF): reduced Rac activity significantly
Rac inhibiting activity, compared with the other screened compounds or NSC23766 (Rac 1, 2, 3; screening of the newly designed compounds, CRL-2505 cells after EGF treatment): improved Rac inhibiting activity when compared to NSC 23766; also recorded: most effective Rac inhibitor
CRL-2505 cell proliferation [2]: significantly reduced
sub G1 events (M1) (CRL-2505 cells [3]; 1 µM): 8.08%
sub G1 events (M1) (CRL-2505 cells [3]; 2 µM): 9.26%
G2/M (M4) phases (CRL-2505 cells [3]; 2 µM, untreated 32.25%): 28.44%
inhibition at 20 µM (Cyclin D1): 22%
apoptosis (staining with Annexin V-FITC and PI) (CRL-2505 cells [4]): no significant signs of apoptosis
cancer cell migration (Prostate cancer cells; 1 µM): failed to reduce cancer cell migration
cancer cell migration (Prostate cancer cells; 2 µM, 20 h): significantly reduced migration
cancer cell migration (Prostate cancer cells; 5 µM, 20 h): significantly reduced migration
pAkt at different time points (phospho-Akt; 5 min to 90 min after treatment): decreased significantly
inhibition at 20 µM (phospho-Akt; Homo sapiens, 1 h, 20 µM for 60 min (Fig. 4A), compared to untreated cells, read-out: phospho-Akt levels, reduction): 24%
Pak1 expression (Pak1): not changed
Pak1/2 phosphorylation at serine 144/141 [5]: significantly reduced
activity of ERK (phospho-ERK) (phospho-ERK): not affected
phosphorylation of JNK (phospho-JNK): significant decrease
phosphorylation of p38 (phospho-p38): significant decrease
ranking of AZA1 to AZA4 in the in vivo experiments (solubility, lack of toxicity, tumor-suppressive effects) ([6]; preliminary experiment, 100 µg i.p. in 30% DMSO, n = 5 per group): most potent agent
cell proliferation, staining with Ki-67 antibody ([6]; tumour tissue sections, day 24): reduced
median time to death ([7]; after tumour cell grafting, control 39 ± 15 days): 46 ± 4 days
animals still alive ([7]; day 42, when the last control animal died): 60%
survival ([7]; vs. control mice, Kaplan-Meier): significantly increased

Compound: CCN(CC)CCCC(C)Nc1ncc(C)c(Nc2ccc3[nH]c(C)cc3c2)n1 (stereo not shown) [Compound 10, N*2*-(4-Diethylamino-1-methyl-butyl)-5-methyl-N*4*-(2-methyl-1H-indol-5-yl)-pyrimidine-2,4-diamine]
solubility [1]: appropriate solubility

Compound: CCN(CC)CCCC(C)Nc1nc(C)cc(Nc2ccc3nc(C)cc(N)c3c2)n1 (stereo not shown) [NSC23766, N6-(2-((4-(diethylamino)-1-methylbutyl)amino)-6-methyl-4-pyrimidinyl)-2-methyl-4,6-quinolinediamine]
anchorage independent growth (PC-3): able to inhibit
invasion (PC-3): able to inhibit
proliferation (PC-3): able to inhibit
proliferation of chronic myelogenous leukemia (CML) [8]: inhibited proliferation

Second part, the compound after the results:

solubility [1]: appropriate solubility
Compound: c1cc(Nc2ccc3[nH]ccc3c2)nc(Nc2ccc3[nH]ccc3c2)n1 [Compound 41, N*2*,N*4*-Bis-(1H-indol-5-yl)-pyrimidine-2,4-diamine]

solubility [1]: appropriate solubility
Compound: c1cc(NCc2ccc3[nH]ccc3c2)nc(Nc2ccc3cc[nH]c3c2)n1 [Compound 55, N*2*-(1H-Indol-6-yl)-N*4*-(1H-indol-5-ylmethyl)-pyrimidine-2,4-diamine]
